Laboratory results: patent US11440913B2, “Aminoimidazopyridazines as kinase inhibitors” (BRISTOL-MYERS SQUIBB COMPANY, priority 2017, dated 2022)
Structures can show the parent of a compound that is named as a salt. Where two headings read alike, the source gives them in different places.

Experiments:
[1] = target: His-GST-TVMV-hRIPK1(1-324) (Homo sapiens (Human), UniProt Q13546); test: RIPK1 HTRF Binding Assay; conditions: HTRF binding, 1 h at rt; read-out: RIPK1 (IC50)
Method in brief: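 HTRF probe-displacement binding: 1 nM His-GST-TVMV-hRIPK1(1-324) (baculovirus construct), 90.6 nM probe, 0.2 nM anti-GST-Tb in 20 mM HEPES, 10 mM MgCl2, 0.015% Brij-35, 4 mM DTT, 0.05 mg/mL BSA. Incubated 1 h at rt; FRET 520/495 nm ratio, inhibition relative to DMSO-only wells.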

[2] = tested on: MLKL phosphorylation in HT29-L23 human colorectal adenocarcinoma cells; test: MLKL Phosphorylation High-Content Assay; type: cell-based; conditions: 6 h, necroptosis induced with TNFα, SMAC mimetic and Z-VAD, read-out: pMLKL (IC50)
Method in brief: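 HT29-L23 cells pretreated 30 min at 37 °C with compound (6.25 to 0.106 μM final), then necroptosis induced with TNFα 35 ng/mL, SMAC mimetic 700 nM and Z-VAD 140 nM for 6 h. Fixed cells immunostained for MLKL pS358 and imaged; IC50 and Ymax from 4-parameter logistic fit.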

Chain of His-GST-TVMV-hRIPK1(1-324) (Q13546 1-324): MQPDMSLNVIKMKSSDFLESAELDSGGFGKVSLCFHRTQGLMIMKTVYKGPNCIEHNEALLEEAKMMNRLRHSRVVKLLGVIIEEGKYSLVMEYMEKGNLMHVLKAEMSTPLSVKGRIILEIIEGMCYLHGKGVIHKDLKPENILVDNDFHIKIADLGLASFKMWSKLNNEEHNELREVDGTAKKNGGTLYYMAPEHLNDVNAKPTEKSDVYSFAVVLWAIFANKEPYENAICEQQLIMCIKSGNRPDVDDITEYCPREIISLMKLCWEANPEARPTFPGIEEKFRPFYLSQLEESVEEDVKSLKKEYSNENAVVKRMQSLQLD

Structure (SMILES) | IC50 [1] [nM] | IC50 ([2]; Homo sapiens) [nM] | IC50 [2] [nM]
Cc1nc(C)c(-c2ccc3nc(NC(=O)CO)cn3n2)cc1C(=O)NCc1cc(C(F)(F)F)ccc1F [Example 94, N-{[2-fluoro-5-(trifluoromethyl)phenyl]methyl}-5-[2-(2-hydroxyacet-amido)imidazo[1,2-b]pyridazin-6-yl]-2,6-dimethylpyridine-3-carboxamide] | 77 | 87 | 
[2H]C([2H])(NC(=O)c1cc(-c2ccc3nc(NC(C)=O)cn3n2)cnc1C)c1cc(C(F)(F)F)ccc1F [Example 200, 5-{2-acetamidoimidazo[1,2-b]pyridazin-6-yl}-N-{[2-fluoro-5-(trifluoromethyl)phenyl] (deutero)methyl}-2-methylpyridine-3-carboxamide] | 17 | 34 | 
CC(=O)Nc1cn2nc(-c3cc(C(=O)NCc4cc(C(=O)N5CCCC5(C)C)ccc4F)c(C)cc3F)ccc2n1 [Example 416, N-{[5-(2,2-dimethylpyrrolidine-1-carbonyl)-2-fluorophenyl]methyl}-5-{2-acetamidoimidazo [1,2-b]pyridazin-6-yl}-4-fluoro-2-methylbenzamide] | 13 | 72 | 
COc1ncc(-c2ccc3nc(NC(C)=O)cn3n2)cc1C(=O)NCc1ccccc1OCC(F)(F)F [Example 108, 5-{2-acetamidoimidazo[1,2-b]pyridazin-6-yl}-2-methoxy-N-{[2-(2,2,2-trifluoroethoxy)phenyl]meth-yl}pyridine-3-carboxamide] | 4 | 28 | 
CC(=O)Nc1cn2nc(-c3cc(C(=O)NCc4cc(F)cc(F)c4O[C@H]4CCOC4)c(C)nc3C)ccc2n1 [Example 60, N-({3,5-difluoro-2-[(3S)-oxolan-3-yloxy]phenyl}methyl)-5-{2-acetamidoimidazo[1,2-b]pyridazin-6-yl}-2,6-dimethylpyridine-3-carboxamide] | 6 | 26 | 
COc1ncc(-c2ccc3nc(NC(C)=O)cn3n2)cc1C(=O)NCc1cccc(F)c1OC(C)C1CC1 (centres unmarked) [Example 144, N-{[2-(1-cyclopropylethoxy)-3-fluorophenyl]methyl}-5-{2-acetamidoimidazo[1,2-b]pyridazin-6-yl}-2-methoxypyridine-3-carboxamide] | 6 |  | 6
[2H]C([2H])([2H])Oc1ncc(-c2ccc3nc(NC(C)=O)cn3n2)cc1C(=O)NCc1cc(F)cc(F)c1OC([2H])([2H])C1CC1 [Example 49, N-({2-[cyclopropyl(deutero)methoxy]-3,5-difluorophenyl}methyl)-5-{2-acetamidoimidazo[1,2-b]pyridazin-6-yl}-2-(D3)methoxypyridine-3-carboxamide] | 3 | 5 | 
CC(=O)Nc1cn2nc(-c3cnc(C)c(C(=O)N[C@H](C)c4cc(OC(F)(F)F)ccc4F)c3)ccc2n1 (single isomer, unassigned) [Example 9-2] | 31 | 28 | 
CC(=O)Nc1cn2nc(-c3cnc(C)c(C(=O)Nc4cn(Cc5ccccc5)cn4)c3)ccc2n1 [Example 351, N-(1-benzyl-1H-imidazol-4-yl)-5-{2-acetamidoimidazo [1,2-b]pyridazin-6-yl}-2-methylpyridine-3-carboxamide] | 28 | 49 | 
[2H]C([2H])(NC(=O)c1cnc(C)c(-c2ccc3nc(NC(C)=O)cn3n2)c1)c1cc(OC(F)(F)F)ccc1F [Example 230, 5-{2-acetamidoimidazo[1,2-b]pyridazin-6-yl}-N-{[2-fluoro-5-(trifluoromethoxy)phenyl](deutero)methy 1}-6-methylpyridine-3-carboxamide] | 19 | 90 | 
[2H]C([2H])([2H])Oc1ncc(-c2ccc3nc(NC(C)=O)cn3n2)cc1C(=O)NC([2H])([2H])c1cc(F)cc(F)c1OC1CCOCC1 [Example 46, N-{[3,5-difluoro-2-(oxan-4-yloxy)phenyl](deutero)methyl}-5-{2-acetamidoimidazo[1,2-b]pyridazin-6-yl}-2-(D3)methoxypyridine-3-carboxamide] | 2 | 1 | 
CC(=O)Nc1cn2nc(-c3cncc(C(=O)NCc4c(F)cccc4OC4CCCC4)c3)ccc2n1 [Example 240, N-{[2-(cyclopentyloxy)-6-fluorophenyl]methyl}-5-{2-acetamidoimidazo[1,2-b]pyridazin-6-yl}pyridine-3-carboxamide] | 5 | 8 | 
[2H]C([2H])([2H])[C@@H](NC(=O)c1cc(-c2ccc3nc(NC(C)=O)cn3n2)cnc1C)c1cc(OC(F)(F)F)ccc1F [Example 199, 5-{2-acetamidoimidazo[1,2-b]pyridazin-6-yl}-N-[(1R)-1-[2-fluoro-5-(trifluoromethoxy)phenyl](2,2,2-deutero)ethyl]-2-methylpyridine-3-carboxamide] | 13 | 17 | 
COc1nc(C)c(-c2ccc3nc(NC(C)=O)cn3n2)cc1C(=O)NCc1cc(OCC2CC2)ccc1F [Example 297, N-{[5-(cyclopropylmethoxy)-2-fluorophenyl]methyl}-5-{2-acetamidoimidazo[1,2-b]pyridazin-6-yl}-2-methoxy-6-methylpyridine-3-carboxamide] | 11 | 36 | 
COc1nc(C)c(-c2ccc3nc(NC(C)=O)cn3n2)cc1C(=O)NCc1ccccc1OC1CCOC1 (centres unmarked) [Example 306, 5-{2-acetamidoimidazo[1,2-b]pyridazin-6-yl}-2-methoxy-6-methyl-N-{[2-(oxolan-3-yloxy)phenyl]methyl}pyridine-3-carboxamide] | 5 | 6 | 
[2H]C([2H])([2H])Oc1ncc(-c2ccc3nc(NC(C)=O)cn3n2)cc1C(=O)NC(C)c1ccccc1OC(F)(F)F (centres unmarked) [Example 57, 5-{2-acetamidoimidazo[1,2-b]pyridazin-6-yl}-2-(D3)methoxy-N-{1-[2-(trifluoromethoxy)phenyl]eth-yl}pyridine-3-carboxamide] | 10 |  | 25
COc1nc(C)c(-c2ccc3nc(NC(C)=O)cn3n2)cc1C(=O)NCc1ccccc1OC(C)C1CCCC1 (centres unmarked) [Example 302, N-{[2-(1-cyclopentylethoxy)phenyl]methyl}-5-{2-acetamidoimidazo[1,2-b]pyridazin-6-yl}-2-methoxy-6-methylpyridine-3-carboxamide] | 25 |  | 16
COc1ncc(-c2ccc3nc(NC(C)=O)cn3n2)cc1C(=O)NCCC(C)c1ccccc1 (centres unmarked) [Example 25, 5-{2-acetamidoimidazo[1,2-b]pyridazin-6-yl}-2-methoxy-N-(3-phenylbutyl)pyridine-3-carboxamide] | 2 | 9 | 
COc1ncc(-c2ccc3nc(NC(C)=O)cn3n2)cc1C(=O)NCc1cc(F)cc(F)c1O[C@H]1CCOC1 [Example 98, N-({3,5-difluoro-2-[(3S)-oxolan-3-yloxy]phenyl}methyl)-5-{2-acetamidoimidazo[1,2-b]pyridazin-6-yl}-2-methoxypyridine-3-carboxamide] | 2 | 39 | 
[2H]C([2H])([2H])Oc1nc(C)c(-c2ccc3nc(NC(C)=O)cn3n2)cc1C(=O)NCc1c(F)cccc1OCC(F)(F)F [Example 173, 5-{2-acetemidoimidazo[1,2-b]pyridazin-6-yl}-N-{[2-fluoro-6-(2,2,2-trifluoroethoxy)phenyl]methyl}-2-(deutero)methoxy-6-methylpyridine-3-carboxamide] | 3 | 2 | 
CC(=O)Nc1cn2nc(-c3cnc(C)c(C(=O)NCc4cc(F)cc(F)c4OCC4CCC4)c3)ccc2n1 [Example 210, N-{[2-(cyclobutylmethoxy)-3,5-difluorophenyl]methyl}-5-{2-acetamidoimidazo[1,2-b]pyridazin-6-yl}-2-methylpyridine-3-carboxamide, TFA] | 3 |  | 5
COc1nc(C)c(-c2ccc3nc(NC(C)=O)cn3n2)cc1C(=O)NCc1cc(F)cc(OC(F)(F)F)c1 [Example 280, 5-{2-acetamidoimidazo[1,2-b]pyridazin-6-yl}-N-{[3-fluoro-5-(trifluoromethoxy)phenyl]methyl}-2-methoxy-6-methylpyridine-3-carboxamide] | 5 | 36 | 
COc1ncc(-c2ccc3nc(NC(C)=O)c(C)n3n2)cc1C(=O)NCc1cc(OC(F)(F)F)ccc1F [Example 6, 5-{2-acetamido-3-methylimidazo[1,2-b]pyridazin-6-yl}-N-{[2-fluoro-5-(trifluoromethoxy)phenyl]methyl}-2-methoxypyridine-3-carboxamide] | 25 | 10 | 
CC(=O)Nc1cn2nc(-c3ccc(C)c(C(=O)NCc4cc(C(=O)N5CC(F)(F)C5)ccc4F)c3)ccc2n1 [Example 404, N-{[5-(3,3-difluoroazetidine-1-carbonyl)-2-fluorophenyl]methyl}-5-{2-acetamidoimidazo [1,2-b]pyridazin-6-yl}-2-methylbenzamide] | 52 | 259 | 
COc1ncc(-c2ccc3nc(NC(=O)C(C)C)cn3n2)cc1C(=O)NCc1cc(OC(F)(F)F)ccc1F [Example 11, N-{[2-fluoro-5-(trifluoromethoxy)phenyl]methyl}-2-methoxy-5-[2-(2-methylpropanamido)imidazo[1,2-b]pyridazin-6-yl]pyridine-3-carboxamide] | 20 | 89 | 
